Test results as given in US20260028341A1, “IMIDAZOTRIAZINE DERIVATIVES AS IL-17 MODULATORS” (UCB BIOPHARMA SRL, priority 2022, published 2026).

molecular target: T1, IL-17A (Homo sapiens, UniProt Q16552); assay: Inhibition of IL-17A induced IL-6 release from dermal fibroblast cell line (HDF cell line assay); assay type: cell-based; conditions: HDF cells stimulated with IL-17A (50 pM) plus TNF-α (25 pM); IL-6 release measured by HTRF
T1 sequence (Q16552 24-155): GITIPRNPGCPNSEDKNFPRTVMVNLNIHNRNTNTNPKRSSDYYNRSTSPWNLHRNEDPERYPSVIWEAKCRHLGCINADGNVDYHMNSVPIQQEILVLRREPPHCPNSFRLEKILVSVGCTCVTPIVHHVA
Text: Inhibition of IL-17A Induced IL-6 Release from Dermal Fibroblast Cell Line
The purpose of this assay is to test the neutralising ability to IL-17 proteins, in a human primary cell system. Stimulation of normal human dermal fibroblasts (HDF) with IL-17 alone produces only a very weak signal but in combination with certain other cytokines, such as TNFα, a synergistic effect can be seen in the production of inflammatory cytokines, i.e. IL-6.
HDFs were stimulated with IL-17A (50 pM) in combination with TNF-α (25 pM). The resultant IL-6 response was then measured using a homogenous time-resolved FRET kit from Cisbio. The kit utilises two monoclonal antibodies, one labelled with Eu-Cryptate (Donor) and the second with d2 or XL665 (Acceptor). The intensity of the signal is proportional to the concentration of IL-6 present in the sample (Ratio is calculated by 665/620×104).
The ability of a compound to inhibit IL-17 induced IL-6 release from human dermal fibroblasts is measured in this assay.
HDF cells (Sigma #106-05n) were cultured in complete media (DMEM+10% FCS+2 mM L-glutamine) and maintained in a tissue culture flask using standard techniques. Cells were harvested from the tissue culture flask on the morning of the assay using TrypLE (Invitrogen #12605036). The TrypLE was neutralised using complete medium (45 mL) and the cells were centrifuged at 300×g for 3 minutes. The cells were re-suspended in complete media (5 mL) counted and adjusted to a concentration of 3.125×10^4 cells/mL before being added to the 384 well assay plate (Corning #3701) at 40 μL per well. The cells were left for a minimum of three hours, at 37° C./5% CO2, to adhere to the plate.
Compounds were serially diluted in DMSO before receiving an aqueous dilution into a 384 well dilution plate (Greiner #781281), where […] from the titration plate was transferred to 45 μL of complete media and mixed to give a solution containing 10% DMSO.
Mixtures of TNFα and IL-17 cytokine were prepared in complete media to final concentrations of TNFα 25 pM/IL-17A 50 pM, then 30 μL of the solution was added to a 384 well reagent plate (Greiner #781281).
10 μL from the aqueous dilution plate was transferred to the reagent plate containing 30 μL of the diluted cytokines, to give a 2.5% DMSO solution. The compounds were incubated with the cytokine mixtures for 5 h at 37° C. After the incubation, 10 μL was transferred to the assay plate, to give a 0.5% DMSO solution, then incubated for 18-20 h at 37° C./5% CO2.
From the Cisbio IL-6 FRET kit (Cisbio #62IL6PEB) europium cryptate and Alexa 665 were diluted in reconstitution buffer and mixed 1:1, as per kit insert. To a white low volume 384 well plate (Greiner #784075) were added FRET reagents (10 μL), then supernatant (10 μL) was transferred from the assay plate to Greiner reagent plate. The mixture was incubated at room temperature for 3 h with gentle shaking (<400 rpm) before being read on a Synergy Neo 2 plate reader (Excitation: 330 nm; Emission: […]).

IC50 [nM]	Compound	pIC50
200	Cc1nonc1C(=O)N[C@H](c1cn2ncc(C3(N4C[C@H](C(F)(F)F)NC4=O)CCN(C)CC3)nc2n1)C1CCC(F)(F)CC1 (single isomer, unassigned) [Example 19]	–
3.98	Cc1nonc1C(=O)N[C@H](c1cn2ncc(C3(N4C[C@@H](C(F)(F)F)NC4=O)CCN(CC(C)(C)F)CC3)nc2n1)C1CCC(F)(F)CC1 (single isomer, unassigned) [Example 16]	–
10	Cc1nonc1C(=O)N[C@H](c1cn2ncc(C3(N4C[C@@H](C(F)(F)F)NC4=O)CCN(C)CC3)nc2n1)C1CCC(F)(F)CC1 (single isomer, unassigned) [Example 18]	–
31.6	Cc1nonc1C(=O)N[C@H](c1cn2ncc(C3(N4CC(C(F)(F)F)NC4=O)CCNCC3)nc2n1)C1CCC(F)(F)CC1 (stereo partly drawn) [Example 7, N—[(S)-(4,4-Difluorocyclohexyl)(3-{4-[2-oxo-4-(trifluoromethyl)imidazolidin-1-yl]-piperidin-4-yl}imidazo[1,2-b][1,2,4]triazin-6-yl)methyl]-4-methyl-1,2,5-oxadiazole-3-carboxamide]	–
7.94	Cc1nonc1C(=O)N[C@H](c1cn2ncc(C3(N4CC(C(F)(F)F)NC4=O)CCN(C(=O)OC(C)(C)C)CC3)nc2n1)C1CCC(F)(F)CC1 (stereo partly drawn) [Example 6, tert-Butyl 4-(6-{(S)-(4,4-difluorocyclohexyl)[(4-methyl-1,2,5-oxadiazole-3-carbonyl)-amino]methyl}imidazo[1,2-b][1,2,4]triazin-3-yl)-4-[2-oxo-4-(trifluoromethyl)-imidazolidin-1-yl]piperidine-1-carboxylate]	–
316	Cc1nonc1C(=O)N[C@H](c1cn2ncc(C3(N4C[C@H](C(F)(F)F)NC4=O)CCN(CC(C)(F)F)CC3)nc2n1)C1CCC(F)(F)CC1 (single isomer, unassigned) [Example 15]	–
3.98	Cc1nonc1C(=O)N[C@H](c1cn2ncc(C3(N4C[C@@H](C(F)(F)F)NC4=O)CCN(CC(C)(F)F)CC3)nc2n1)C1CCC(F)(F)CC1 (single isomer, unassigned) [Example 14]	–
7940	Cc1nonc1C(=O)N[C@H](c1cn2ncc([C@@]3(N4C[C@H](C(F)(F)F)NC4=O)CCOC3)nc2n1)C1CCC(F)(F)CC1 (single isomer, unassigned) [Example 13]	–
2000	Cc1nonc1C(=O)N[C@H](c1cn2ncc(C3(N4C[C@H](C(F)(F)F)NC4=O)CCOCC3)nc2n1)C1CCC(F)(F)CC1 (single isomer, unassigned) [Example 5]	–
251	Cc1nonc1C(=O)N[C@H](c1cn2ncc(C3(N4C[C@H](C(F)(F)F)NC4=O)CCN(CC(C)(C)F)CC3)nc2n1)C1CCC(F)(F)CC1 (single isomer, unassigned) [Example 17]	–

The next lines start with the compound.

Compound	IC50 [nM]	pIC50
Cc1nonc1C(=O)N[C@H](c1cn2ncc(C3(N4C[C@@H](C(F)(F)F)NC4=O)CCOCC3)nc2n1)C1CCC(F)(F)CC1 (single isomer, unassigned) [Example 4]	3.98	–
N—[(S)-(4,4-Difluorocyclohexyl)(3-{3-[(4S)-2-oxo-4-(trifluoromethyl)imidazolidin-1-yl]-oxetan-3-yl}imidazo[1,2-b][1,2,4]triazin-6-yl)methyl]-4-methyl-1,2,5-oxadiazole-3-carboxamide [Example 8]	–	7.5
Cc1nonc1C(=O)N[C@H](c1cn2ncc(C3(N4C[C@H](C(F)(F)F)NC4=O)CC(F)(F)C3)nc2n1)C1CCC(F)(F)CC1 (single isomer, unassigned) [Example 2]	1000	–
Cc1nonc1C(=O)N[C@H](c1cn2ncc(C3(N4CC(C(F)(F)F)NC4=O)CC(F)(F)C3)nc2n1)C1CCC(F)(F)CC1 (single isomer, unassigned) [Example 1]	6.31	–
Cc1nonc1C(=O)N[C@H](c1cn2ncc(C3(N4C[C@@H](C(F)(F)F)NC4=O)CC3)nc2n1)C1CCC(F)(F)CC1 (single isomer, unassigned) [Example 3]	631	–
N—[(S)-(4,4-Difluorocyclohexyl)(3-{(3S)-3-f[(4S)-2-oxo-4-(trifluoromethyl)imidazolidin-1-yl]tetrahydrofuran-3-yl}imidazo[1,2-b][1,2,4]triazin-6-yl)methyl]-4-methyl-1,2,5-oxadiazole-3-carboxamide [Example 11]	–	8.0
N—[(S)-(4,4-Difluorocyclohexyl)(3-{(3R)-3-[(4S)-2-oxo-4-(trifluoromethyl)imidazolidin-1-yl]tetrahydrofuran-3-yl}imidazo[1,2-b][1,2,4]triazin-6-yl)methyl]-4-methyl-1,2,5-oxadiazole-3-carboxamide [Example 10]	–	7.2
N—[(S)-(4,4-Difluorocyclohexyl)(3-{(3R)-3-[(4R)-2-oxo-4-(trifluoromethyl)imidazolidin-1-yl]tetrahydrofuran-3-yl}imidazo[1,2-b][1,2,4]triazin-6-yl)methyl]-4-methyl-1,2,5-oxadiazole-3-carboxamide [Example 12]	–	6.2
N—[(S)-(4,4-Difluorocyclohexyl)(3-{3-[(4R)-2-oxo-4-(trifluoromethyl)imidazolidin-1-yl]-oxetan-3-yl}imidazo[1,2-b][1,2,4]triazin-6-yl)methyl]-4-methyl-1,2,5-oxadiazole-3-carboxamide [Example 9]	–	5.0
